Results taken from US10123537B2, “Amide compound or salt thereof, agricultural and horticultural insecticide and microbicide comprising the compound, and method for using the insecticide and microbicide” (NIHON NOHYAKU CO., LTD., priority 2013, dated 2018).

Assays:
[1] = tested on: Tetranychus urticae; assay: Acaricidal test on Tetranychus urticae; type: in vivo; conditions: 500 ppm, kidney bean leaf disks dipped about 30 seconds, female adults, two days later, 25° C.
From the text: Acaricidal Test on Tetranychus urticae

[2] = tested on: Meloidogyne incognita; assay: Nematicidal test on Meloidogyne incognita; type: in vivo; conditions: 500 ppm, 1 mL soil drench, potted melon seedlings, 8 days after inoculation
Protocol: Nematicidal Test on Meloidogyne incognita
Agrochemical formulations containing different amide compounds represented by the general formula (I) of the present invention or salts thereof as an active ingredient were separately diluted to a concentration of 500 ppm. The diluted agrochemical formulations (1 mL) were drenched into the soil around the foot of potted melon seedlings. At one day after the agrochemical treatment, an aqueous suspension of Meloidogyne incognita (about 500 worms/mL) was drenched into the soil for inoculation both in a treatment plot and in a non-treatment plot. The inoculated pots were kept in a greenhouse at 25° C. At 8 days after the inoculation, the root of each seedling was washed with water, the number of root nodules was counted, and the nematicidal effect was evaluated according to the following criteria.
A: the percentage of the number of root nodules relative to the non-treatment plot is 0%.
B: the percentage of the number of root nodules relative to the non-treatment plot is 1 to 10%.
C: the percentage of the number of root nodules relative to the non-treatment plot is 11 to 20%.
D: the percentage of the number of root nodules relative to the non-treatment plot is 21 to 50%.

[3] = tested on: wheat powdery mildew fungus Erysiphe graminis; conditions: 200 ppm, foliar application to wheat plants, 10 mL per pot, 7 days after inoculation

Row | SMILES | acaricidal effect (corrected mortality rate) activity level [1] | nematicidal effect (number of root nodules relative to non-treatment plot) activity level [2] | control effect (control rate, lesion area) activity level [3]
1 | CCSc1cc(C(F)(F)F)ccc1C(=O)N(CC)c1ccc(C(F)(F)F)cn1 [Compound 1-4] | D or higher | D or higher | –
2 | CCSc1cc(C(F)(F)F)ccc1C(=O)N(c1ccc(C(F)(F)F)cn1)C1CC1 [Compound 1-7] | – | D or higher | –
3 | CC[S+]([O-])c1cc(C(F)(F)F)ccc1C(=O)N(c1ccc(C(F)(F)F)cn1)C1CC1 (centres unmarked) [Compound 1-8] | D or higher | D or higher | –
4 | CCS(=O)(=O)c1cc(C(F)(F)F)ccc1C(=O)N(c1ccc(C(F)(F)F)cn1)C1CC1 [Compound 1-9] | D or higher | D or higher | –
5 | CCSc1cc(C(F)(F)F)cnc1C(=O)N(CC)c1ccc(C(F)(F)F)cn1 [Compound 1-10] | – | D or higher | D or higher
6 | CCN(C(=O)c1ncc(C(F)(F)F)cc1S(=O)(=O)CC)c1ccc(C(F)(F)F)cn1 [Compound 1-12] | – | D or higher | –
7 | CCSc1cc(C(F)(F)F)cnc1C(=O)N(c1ccc(C(F)(F)F)cn1)C1CC1 [Compound 1-13] | – | D or higher | –
8 | CC[S+]([O-])c1cc(C(F)(F)F)cnc1C(=O)N(c1ccc(C(F)(F)F)cn1)C1CC1 (centres unmarked) [Compound 1-14] | – | – | D or higher
9 | CCS(=O)(=O)c1cc(C(F)(F)F)cnc1C(=O)N(c1ccc(C(F)(F)F)cn1)C1CC1 [Compound 1-15] | – | – | D or higher
10 | CCS(=O)(=O)c1cc(C(F)(F)F)ccc1C(=O)N(C)c1ccc(C(F)(C(F)(F)F)C(F)(F)F)cn1 [Compound 1-21] | – | D or higher | D or higher
11 | CCSc1cc(C(F)(F)F)ccc1C(=O)N(C)c1ccc(C(F)(C(F)(F)F)C(F)(F)F)nc1 [Compound 1-22] | – | – | D or higher
12 | CCS(=O)(=O)c1cc(C(F)(F)F)ccc1C(=O)N(C)c1ccc(C(F)(C(F)(F)F)C(F)(F)F)nc1 [Compound 1-24] | – | D or higher | –
13 | CCSc1cc(C(F)(F)F)ccc1C(=O)N(C)c1ccc(C(F)(F)C(F)(F)F)cn1 [Compound 1-25] | D or higher | D or higher | –
14 | CCS(=O)(=O)c1cc(C(F)(F)F)ccc1C(=O)N(C)c1ccc(C(F)(F)C(F)(F)F)cn1 [Compound 1-26] | D or higher | D or higher | –
15 | CCS(=O)(=O)c1cc(C(F)(F)C(F)(F)F)ccc1C(=O)N(C)c1ccc(C(F)(F)F)cn1 [Compound 1-44] | – | D or higher | –
16 | CCSc1cc(C(F)(F)F)ccc1C(=O)N(C)c1ccc(C(F)(F)F)nn1 [Compound 2-1] | – | D or higher | –
17 | CCS(=O)(=O)c1cc(C(F)(F)F)ccc1C(=O)N(C)c1ccc(C(F)(F)F)nn1 [Compound 2-3] | – | D or higher | –
18 | CCSc1cc(C(F)(F)F)ccc1C(=O)N(C)c1ccc(C(OC)(C(F)(F)F)C(F)(F)F)cc1 [Compound 3-4] | D or higher | – | –
19 | CCSc1cc(C(F)(F)F)ccc1C(=O)N(C)c1ccc(C(F)(C(F)(F)F)C(F)(F)F)cc1 [Compound 3-7] | – | D or higher | –
20 | CC[S+]([O-])c1cc(C(F)(F)F)ccc1C(=O)N(C)c1ccc(C(F)(C(F)(F)F)C(F)(F)F)cc1 (centres unmarked) [Compound 3-8] | – | D or higher | –
21 | CCS(=O)(=O)c1cc(C(F)(F)F)ccc1C(=O)N(C)c1ccc(C(F)(C(F)(F)F)C(F)(F)F)cc1 [Compound 3-9] | – | D or higher | D or higher
22 | CCSc1cc(C(F)(F)F)ccc1C(=O)N(C)c1ccc(OC(F)(F)F)cc1 [Compound 3-12] | – | D or higher | D or higher
23 | CC[S+]([O-])c1cc(C(F)(F)F)ccc1C(=O)N(C)c1ccc(OC(F)(F)F)cc1 (centres unmarked) [Compound 3-13] | – | – | D or higher
24 | CC[S+]([O-])c1cc(C(F)(F)F)ccc1C(=O)N(C)c1ccc(SC(F)(F)F)cc1 (centres unmarked) [Compound 3-16] | – | – | D or higher
25 | CCS(=O)(=O)c1cc(C(F)(F)F)ccc1C(=O)N(C)c1ccc(SC(F)(F)F)cc1 [Compound 3-17] | – | – | D or higher

Row | SMILES | acaricidal effect (corrected mortality rate) activity level [1] | nematicidal effect (number of root nodules relative to non-treatment plot) activity level [2] | control effect (control rate, lesion area) activity level [3]
26 | CC[S+]([O-])c1cc(C(F)(F)F)ccc1C(=O)N(C)c1ccc(C(C)C)cc1 (centres unmarked) [Compound 3-19] | – | – | D or higher
27 | CC[S+]([O-])c1cc(C(F)(F)F)ccc1C(=O)N(C)c1ccc(Cl)cc1 (centres unmarked) [Compound 3-22] | – | D or higher | –
28 | CC[S+]([O-])c1cc(C(F)(F)F)ccc1C(=O)N(C)c1ccc(Cl)c(Cl)c1 (centres unmarked) [Compound 3-28] | – | – | D or higher
29 | CC[S+]([O-])c1cc(C(F)(F)F)ccc1C(=O)N(C)c1ccc(Cl)c(C(F)(F)F)c1 (centres unmarked) [Compound 3-31] | – | – | D or higher
30 | CCS(=O)(=O)c1cc(C(F)(F)F)ccc1C(=O)N(C)c1ccc(Cl)c(C(F)(F)F)c1 [Compound 3-32] | – | – | D or higher
31 | CC[S+]([O-])c1cc(C(F)(F)F)ccc1C(=O)N(C)c1ccc(I)cc1F (centres unmarked) [Compound 3-34] | – | – | D or higher
32 | CCS(=O)(=O)c1cc(C(F)(F)F)ccc1C(=O)N(C)c1ccc(C(F)(F)C(F)(F)F)c(C)c1 [Compound 3-47] | – | – | D or higher
33 | CCS(=O)(=O)c1cc(C(F)(F)F)ccc1C(=O)N(C)c1ccc(C(F)(F)C(F)(F)F)c(C)c1C [Compound 3-50] | – | – | D or higher
34 | CCSc1cc(C(F)(F)F)ccc1C(=O)Nc1ccc(C(C(F)(F)F)C(F)(F)F)cc1 [Compound 4-5] | – | D or higher | D or higher
35 | CCS(=O)(=O)c1cc(C(F)(F)F)ccc1C(=O)Nc1ccc(C(F)(F)C(F)(F)C(F)(F)C(F)(F)F)cc1C [Compound 4-16] | – | – | D or higher
36 | CC[S+]([O-])c1cc(C(F)(F)F)ccc1C(=O)Nc1ccc(F)c(C(F)(F)F)c1F (centres unmarked) [Compound 4-21] | – | – | D or higher
37 | CCS(=O)(=O)c1cc(C(F)(F)F)ccc1C(=O)Nc1ccc(F)c(C(F)(F)F)c1F [Compound 4-22] | – | – | D or higher
38 | CC[S+]([O-])c1cc(C(F)(F)F)ccc1C(=O)Nc1ccc(C(F)(C(F)(F)F)C(F)(F)F)cc1Cl (centres unmarked) [Compound 4-27] | – | – | D or higher
39 | CCSc1cc(C(F)(F)F)ccc1C(=O)Nc1ccc(C(F)(C(F)F)C(F)(F)F)cc1Cl (centres unmarked) [Compound 5-51] | – | – | D or higher
40 | CCS(=O)(=O)c1cc(C(F)(F)F)ccc1C(=O)Nc1ccc(C(F)(C(F)(F)F)C(F)(F)Br)cc1Cl (centres unmarked) [Compound 5-59] | – | – | D or higher
41 | CC[S+]([O-])c1cc(C(F)(F)F)ccc1C(=O)Nc1ccc([Si](C)(C)C)cc1C (centres unmarked) [Compound 5-64] | – | – | D or higher
42 | CC[S+]([O-])c1cc(C(F)(F)F)ccc1C(=O)Nc1ccc(OC(F)(F)C(F)F)cc1C (centres unmarked) [Compound 5-70] | – | – | D or higher
43 | CCS(=O)(=O)c1cc(C(F)(F)F)ccc1C(=O)Nc1ccc(OC(F)(F)C(F)F)cc1C [Compound 5-71] | – | – | D or higher
44 | CC[S+]([O-])c1cc(C(F)(F)F)ccc1C(=O)Nc1ccc(OC(F)(F)F)cc1Br (centres unmarked) [Compound 5-73] | – | – | D or higher
45 | CCc1cc(OC(F)(F)F)ccc1NC(=O)c1ccc(C(F)(F)F)cc1S(=O)(=O)CC [Compound 5-77] | – | – | D or higher
46 | CCS(=O)(=O)c1cc(OC)ccc1C(=O)Nc1ccc(C(F)(C(F)(F)F)C(F)(F)F)cc1C [Compound 6-12] | – | – | D or higher
47 | CCSc1cc(SC(F)(F)F)ccc1C(=O)Nc1ccc(C(F)(C(F)(F)F)C(F)(F)F)cc1Cl [Compound 6-22] | – | – | D or higher
48 | CC[S+]([O-])c1cc(SC(F)(F)F)ccc1C(=O)Nc1ccc(C(F)(C(F)(F)F)C(F)(F)F)cc1Cl (centres unmarked) [Compound 6-23] | – | – | D or higher
49 | CCS(=O)(=O)c1cc(SC(F)(F)F)ccc1C(=O)Nc1ccc(C(F)(C(F)(F)F)C(F)(F)F)cc1Cl [Compound 6-24] | – | – | D or higher
